The values below come from publication PMC8011931, “Identification, Structure–Activity Relationship, and Biological Characterization of 2,3,4,5-Tetrahydro-1H-pyrido[4,3-b]indoles as a Novel Class of CFTR Potentiators” (Journal of Medicinal Chemistry, 2020).

In this experiment the target is F508del-CFTR (Homo sapiens, UniProt P13569, DEL508-508). The experiment can be described thus: HS-YFP-based assay for CFTR activity on F508del-CFTR FRT cells rescued at 32 °C for 24 h. The format is cell-based. Details: expressed in transfected cells; key to Emax: fold increase in F508del-CFTR rescue relative to hit 3 (normalized). The settings on record: for EC50: F508del-CFTR FRT cells rescued at 32 °C for 24 h, plus forskolin; for EC50 / Emax (FRT F508del-CFTR): mean ± SD (n = 3–6), n.a.: not active (up to 20 μM); for Emax (FRT F508del-CFTR): normalized for the activity of analogue 3; for Emax: supplementary csv, same data as Tables 1–3. As for the experimental part:
The chemical library was screened in duplicate on a Fischer rat thyroid (FRT) cell line, stably coexpressing F508del-CFTR and the halide-sensitive yellow fluorescent protein, HS-YFP.[23],[34],[35] To overcome the F508del trafficking defect, cells were initially incubated for 24 h at 32 °C and then acutely treated (15–30 min) with a single compound (5 μM) in combination with forskolin (10 μM). After stimulation, the F508del-CFTR activity in the plasma membrane was calculated by measuring the rate of fluorescence quenching arising from iodide influx.[34] This activity was compared to that of wells containing forskolin alone (negative control) or forskolin plus VX-770 (1 μM, as a positive control) (Figure 2A). Analysis of screening performance with the Z′ method gave a score of 0.6, which can be considered optimal for this type of assay. The activity scores for each compound were then plotted as an ordered distribution (Figure 2B). All compounds whose average activity calculated from the two rounds of screening was greater than 185% with respect to the negative control (i.e., forskolin alone) were considered as primary hits.
The primary hits were confirmed by testing them at different concentrations, in order to extrapolate the dose–response relationship. First, we focused on the F508del mutant. The compounds were tested in the low micromolar range, in the presence of forskolin (10 μM), on F508del-CFTR FRT cells following rescue of the trafficking defect by low-temperature incubation, as done for the primary screening. The most interesting hits were subsequently tested for their ability to overcome the more severe gating defect of pure class III mutant using FRT cells stably expressing G551D-CFTR (Figure 3B).
The role of the heteroaryl group (A) acylating the position 2 of the tetrahydro-γ-carboline was initially explored by modifying the substituent on the pyrazolyl residue and replacing the pyrazole with other rings, while keeping the 8-methoxy carboline moiety unmodified. The activity of each compound is described in terms of normalized maximal efficacy (Emax), the maximum fold increase in the rescue of F508del-CFTR activity with respect to hit 3, and potency (EC50), the concentration producing half-maximal efficacy.
FRT cells stably expressing mutant F508del-CFTR or G551D-CFTR and the halide-sensitive yellow fluorescent protein (HS-YFP) YFP-H148Q/I152L and CFBE41o-cells stably expressing F508del-CFTR and HS-YFP were generated as previously described.[21],[57] FRT cells were cultured using the Coon’s modification of Ham’s F12 medium, while CFBE41o-cells were cultured in the modified Eagle’s medium. Media were supplemented with 10% fetal calf serum, 2 mM L-glutamine, 100 U/mL of penicillin, and […] of streptomycin. For functional assays of CFTR activity based on the HS-YFP assays, CFBE41o- or FRT cells were plated (50,000 cells/well) on clear-bottom 96-well black microplates (Corning Life Sciences, Acton, MA). The following day, cells were assayed. In the case of FRT cells expressing F508del-CFTR, plates were kept at 32 °C (or treated with correctors at 37 °C where indicated) for an additional 24 h to rescue the mutant trafficking defect, before assays.
Prior assay, cells were washed with phosphate-buffered saline (PBS) containing (in mM) 137 NaCl, 2.7 KCl, 8.1 Na2HPO4, 1.5 KH2PO4, 1 CaCl2, and 0.5 MgCl2. Cells were then incubated for 25 min with 60 μL of PBS plus forskolin (20 μM) and test compounds (at the desired concentration) to stimulate mutant CFTR. Cells were then transferred to microplate readers (FluoStar Optima; BMG Labtech, Offenburg, Germany) for CFTR activity determination. The plate readers were equipped with high-quality excitation (HQ500/20X: 500 ± 10 nm) and emission (HQ535/30M: 535 ± 15 nm) filters for YFP (Chroma Technology). […]

Chain of F508del-CFTR (P13569 with tags, fused parts or gaps DEL508-508): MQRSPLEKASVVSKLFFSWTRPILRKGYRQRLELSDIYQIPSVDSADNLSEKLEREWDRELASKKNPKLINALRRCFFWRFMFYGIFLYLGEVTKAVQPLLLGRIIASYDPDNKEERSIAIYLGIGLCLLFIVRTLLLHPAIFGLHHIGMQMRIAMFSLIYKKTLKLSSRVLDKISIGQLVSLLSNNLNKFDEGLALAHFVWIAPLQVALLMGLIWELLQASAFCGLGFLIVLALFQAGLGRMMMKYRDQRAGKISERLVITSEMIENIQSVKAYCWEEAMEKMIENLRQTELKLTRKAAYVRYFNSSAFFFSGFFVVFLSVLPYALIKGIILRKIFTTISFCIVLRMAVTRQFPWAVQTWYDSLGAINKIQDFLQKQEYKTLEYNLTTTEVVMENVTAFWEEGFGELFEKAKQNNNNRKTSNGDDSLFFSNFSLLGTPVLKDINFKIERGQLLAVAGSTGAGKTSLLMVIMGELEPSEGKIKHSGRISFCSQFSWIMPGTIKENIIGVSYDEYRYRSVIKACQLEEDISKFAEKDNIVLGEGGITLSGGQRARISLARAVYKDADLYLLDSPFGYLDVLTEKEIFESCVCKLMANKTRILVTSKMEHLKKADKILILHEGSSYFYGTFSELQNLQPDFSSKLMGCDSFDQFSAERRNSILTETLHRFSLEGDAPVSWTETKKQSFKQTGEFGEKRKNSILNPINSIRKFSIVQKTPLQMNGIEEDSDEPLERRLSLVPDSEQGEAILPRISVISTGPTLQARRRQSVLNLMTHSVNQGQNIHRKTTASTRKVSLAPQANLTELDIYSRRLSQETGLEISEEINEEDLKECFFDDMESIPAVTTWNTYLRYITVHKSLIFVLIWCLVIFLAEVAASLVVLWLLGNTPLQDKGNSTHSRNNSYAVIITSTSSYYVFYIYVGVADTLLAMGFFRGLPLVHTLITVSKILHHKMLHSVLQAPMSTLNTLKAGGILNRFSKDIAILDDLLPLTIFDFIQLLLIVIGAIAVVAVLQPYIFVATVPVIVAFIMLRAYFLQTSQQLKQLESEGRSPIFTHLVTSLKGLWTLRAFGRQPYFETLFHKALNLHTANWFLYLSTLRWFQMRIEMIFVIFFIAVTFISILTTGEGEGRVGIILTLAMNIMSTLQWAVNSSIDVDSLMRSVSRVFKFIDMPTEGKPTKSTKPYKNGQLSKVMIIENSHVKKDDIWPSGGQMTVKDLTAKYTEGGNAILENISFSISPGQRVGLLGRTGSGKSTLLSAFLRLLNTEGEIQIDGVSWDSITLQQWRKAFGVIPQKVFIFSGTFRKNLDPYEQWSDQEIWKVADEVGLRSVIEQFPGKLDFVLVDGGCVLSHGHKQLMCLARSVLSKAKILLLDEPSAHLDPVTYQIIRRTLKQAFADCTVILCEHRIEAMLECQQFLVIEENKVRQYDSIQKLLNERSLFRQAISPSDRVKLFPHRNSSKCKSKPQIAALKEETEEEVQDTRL

`O=C(c1cc(C(F)(F)F)[nH]n1)N1CCc2[nH]c3ccc(OC(F)(F)F)cc3c2C1` [Compound 22, (8-(Trifluoromethoxy)-1,3,4,5-tetrahydro-2H-pyrido[4,3-b]indol-2-yl)-(5-(trifluoromethyl)-1H-pyrazol-3-yl)methanone]: the concentration for a half-maximal effect (EC50) turned out to be 0.16 ± 0.03 µM, the “Emax (FRT F508del-CFTR)” value stood at 0.89 ± 0.03 and the Emax is 0.89 ± 0.03.
As for `COc1ccc2[nH]c3c(c2c1)CN(C(=O)c1ccc(Br)o1)CC3` [Compound 9, (8-Methoxy-1,3,4,5-tetrahydro-2H-pyrido[4,3-b]indol-2-yl)-(5-bromofuran-2-yl)methanone], the concentration for a half-maximal effect (EC50) was determined as 3.7 ± 1.1 µM and the Emax stood at 0.94 ± 0.11.
On the same counts, the results for `Cc1ccc2[nH]c3c(c2c1)CN(C(=O)c1cc(C(F)(F)F)[nH]n1)CC3` [Compound 14, (8-Methyl-1,3,4,5-tetrahydro-2H-pyrido[4,3-b]indol-2-yl)-(5-(trifluoromethyl)-1H-pyrazol-3-yl)methanone] are 0.27 ± 0.09 µM and 0.95 ± 0.11.
On to `Cc1cc(F)c2[nH]c3c(c2c1)CN(C(=O)c1cc(C(F)(F)F)[nH]n1)CC3` [Compound 26, (6-Fluoro-8-methyl-1,3,4,5-tetrahydro-2H-pyrido[4,3-b]indol-2-yl)-(5-(trifluoromethyl)-1H-pyrazol-3-yl)methanone], for which the EC50 came to 0.23 ± 0.08 µM and the Emax is on record as 0.70 ± 0.02.
`COc1ccc2c(c1)c1c(n2C)CCN(C(=O)c2cc(C(F)(F)F)[nH]n2)C1` [Compound 12, (8-Methoxy-5-methyl-1,3,4,5-tetrahydro-2H-pyrido[4,3-b]indol-2-yl)-(5-(trifluoromethyl)-1H-pyrazol-3-yl)methanone]: the concentration giving a half-maximal response (EC50) is 2.1 ± 0.7 µM, the “Emax (FRT F508del-CFTR)” value was determined as 0.85 ± 0.06 and the Emax stood at 0.85 ± 0.06.
`Cc1cccc2[nH]c3c(c12)CN(C(=O)c1cc(C(F)(F)F)[nH]n1)CC3` [Compound 15, (9-Methyl-1,3,4,5-tetrahydro-2H-pyrido[4,3-b]indol-2-yl)-(5-(trifluoromethyl)-1H-pyrazol-3-yl)methanone]: the EC50 turned out to be 0.48 ± 0.12 µM and the Emax came out at 0.83 ± 0.09.
With `Cc1ccc(F)c2[nH]c3c(c12)CCN(C(=O)c1cc(C(F)(F)F)[nH]n1)CC3` [Compound 38, (7-Fluoro-10-methyl-1,4,5,6-tetrahydroazepino[4,5-b]indol-3(2H)-yl)-(5-(trifluoromethyl)-1H-pyrazol-3-yl)methanone], the concentration for a half-maximal effect (EC50) turned out to be 2.3 ± 0.3 µM and the Emax turned out to be 0.93 ± 0.16. In addition, the “fold decrease (drop) in potency with respect to 30” value (EC50, F508del-CFTR FRT cells) is given as 38 fold.
Take `Cc1ccc(F)c2[nH]c3c(c12)CN(C(=O)c1cc(C(F)(F)F)[nH]n1)[C@@H](C)C3` [Compound 40, (S)-(6-Fluoro-3,9-dimethyl-1,3,4,5-tetrahydro-2H-pyrido[4,3-b]indol-2-yl)-(5-(trifluoromethyl)-1H-pyrazol-3-yl)methanone]: the 50% effective concentration (EC50) was found to be 1.1 ± 0.2 µM, the “Emax (FRT F508del-CFTR)” value worked out at 1.31 ± 0.18 and the Emax is reported as 1.31 ± 0.18.
On to `COc1ccc2[nH]c3c(c2c1)CN(C(=O)c1cc[nH]n1)CC3` [Compound 4, (8-Methoxy-1,3,4,5-tetrahydropyrido[4,3-b]indol-2-yl)-(1H-pyrazol-3-yl)methanone], for which the concentration giving a half-maximal response (EC50) came to 10.6 ± 1.3 µM, the “Emax (FRT F508del-CFTR)” value is 0.17 ± 0.03 and the Emax is reported as 0.17 ± 0.03.
As for `Cc1ccc(F)c2[nH]c3c(c12)[C@H]1CC[C@@H](C3)N1C(=O)c1cc(C(F)(F)F)[nH]n1` (single isomer, unassigned) [Compound 36, (R)- or (S)-(4-Fluoro-1-methyl-5,6,7,8,9,10-hexahydro-7,10-epiminocyclohepta[b]indol-11-yl)(5-(trifluoromethyl)-1H-pyrazol-3-yl)methanone], the “activity on F508del-CFTR FRT cells (in words)” value is “completely inactive”.
Turning to `COc1ccc2[nH]c3c(c2c1)CN(C(=O)c1cc2ccc(N(C)C)cc2[nH]1)CC3` [Compound 10, (8-Methoxy-1,3,4,5-tetrahydro-2H-pyrido[4,3-b]indol-2-yl)-(6-(dimethylamino)-1H-indol-2-yl)methanone], the concentration for a half-maximal effect (EC50) worked out at 0.15 ± 0.02 µM, the “Emax (FRT F508del-CFTR)” value is 0.91 ± 0.12 and the Emax is reported as 0.91 ± 0.12.
In the case of `COc1ccc2[nH]c3c(c2c1)CN(C(=O)c1cc(C(C)C)[nH]n1)CC3` [Compound 6, (8-Methoxy-1,3,4,5-tetrahydro-2H-pyrido-(5-isopropyl-1H-pyrazol-3-yl)-[4,3-b]indol-2-yl)methanone], the EC50 is 5.7 ± 0.7 µM, the “Emax (FRT F508del-CFTR)” value is 0.95 ± 0.08 and the Emax turned out to be 0.95 ± 0.08.
As to `O=C(c1cc(C(F)(F)F)[nH]n1)N1CCc2[nH]c3c(F)cc(F)cc3c2C1` [Compound 27, (6,8-Difluoro-1,3,4,5-tetrahydro-2H-pyrido[4,3-b]indol-2-yl)-(5-(trifluoromethyl)-1H-pyrazol-3-yl)methanone], the half-maximal effective concentration (EC50) turned out to be 0.15 ± 0.07 µM and the Emax amounted to 0.66 ± 0.12.
For the compound `O=C(c1cc(C(F)(F)F)[nH]n1)N1CCc2[nH]c3ccc(F)cc3c2C1` [Compound 19, (8-Fluoro-1,3,4,5-tetrahydro-2H-pyrido[4,3-b]indol-2-yl)(5-(trifluoromethyl)-1H-pyrazol-3-yl)methanone], the 50% effective concentration (EC50) was 0.48 ± 0.05 µM and the Emax is on record as 0.97 ± 0.11.
On the same counts, the results for `O=C(c1cc(C(F)(F)F)[nH]n1)N1CCc2[nH]c3ccc(C(F)(F)F)cc3c2C1` [Compound 21, (8-(Trifluoromethyl)-1,3,4,5-tetrahydro-2H-pyrido[4,3-b]indol-2-yl)-(5-(trifluoromethyl)-1H-pyrazol-3-yl)methanone] are 0.44 ± 0.06 µM and 0.95 ± 0.04.
Regarding `COc1ccc2[nH]c3c(c2c1)CN(C(=O)c1cc(C(F)(F)F)n(C)n1)CC3` [Compound 11, (8-Methoxy-1,3,4,5-tetrahydro-2H-pyrido[4,3-b]indol-2-yl)-(1-methyl-5-(trifluoromethyl)-1H-pyrazol-3-yl)methanone], the EC50 was found to be 7.1 ± 1.6 µM, the “Emax (FRT F508del-CFTR)” value worked out at 1.20 ± 0.08 and the Emax is 1.20 ± 0.08.
On to `Cc1ccc(F)c2[nH]c3c(c12)C(C)N(C(=O)c1cc(C(F)(F)F)[nH]n1)CC3` (racemic) [Compound 32, (±)-(6-Fluoro-1,9-dimethyl-1,3,4,5-tetrahydro-2H-pyrido[4,3-b]indol-2-yl)-(5-(trifluoromethyl)-1H-pyrazol-3-yl)methanone], for which the EC50 was determined as 0.03 ± 0.02 µM and the Emax came out at 1.0 ± 0.3.
For `CC(C)c1ccc2[nH]c3c(c2c1)CN(C(=O)c1cc(C(F)(F)F)[nH]n1)CC3` [Compound 18, (8-Isopropyl-1,3,4,5-tetrahydro-2H-pyrido[4,3-b]indol-2-yl)-(5-(trifluoromethyl)-1H-pyrazol-3-yl)methanone], in that order: 1.4 ± 0.9 µM and 0.69 ± 0.09.
For the compound `Cc1ccc(F)c2[nH]c3c(c12)C1CCC(C3)N1C(=O)c1cc(C(F)(F)F)[nH]n1` (single isomer, unassigned) [Compound 37, (S)- or (R)-(4-Fluoro-1-methyl-5,6,7,8,9,10-hexahydro-7,10-epiminocyclohepta[b]indol-11-yl)(5-(trifluoromethyl)-1H-pyrazol-3-yl)methanone], the “activity on F508del-CFTR FRT cells (in words)” value is given as “retained some activity”, the concentration for a half-maximal effect (EC50) is 0.54 ± 0.04 µM and the Emax was found to be 0.95 ± 0.01.

Usually EC50 stands for the concentration needed to bring the measured effect to its halfway point.
